From US20160009674A1, “PROTOTYPICAL BRAIN PROTECTIVE ACTIVITY OF TETRAHYDRO-N-METHYL-2,2-DIPHENYL-3-FURANOMETHANAMINE (AE37MET)” (priority 2013, published 2016)
Entries after “also recorded” stand apart in the source; their conditions may differ.

Tests used:
[1] = tested on: NMDA (10 μM) induced functional excitotoxicity, hippocampal slices; test: NMDA (10 μM) induced functional excitotoxicity in rat hippocampal slices; conditions: for neuroprotection against NMDA induced functional excitotoxicity: hippocampal slices
brain ischemia = brain ischemia in mice; assay type: in vivo; conditions: for neuroprotection against mice brain ischemia: dose not given
hippocampal slices = test: in vitro evaluation of the compounds' own functional excitotoxicity on hippocampal slices
sigma-1 [2] = target: T1, sigma-1 (Homo sapiens, UniProt Q99720); test: sigma-1 agonistic activity
[3] = target: N-methyl-D-aspartate (NMDA) receptors; test: NMDA receptor affinity; assay type: binding
sodium channels = test: sodium channel affinity; assay type: binding
immobility = test: forced swimming (Porsolt) test in mice; assay type: in vivo; conditions: from 5 mg/kg po
M2 muscarinic receptors [4] = target: T2, M2 muscarinic receptors (Cavia porcellus, UniProt H0VRN8); test: functional M2 antagonism, guinea pig left atria
T2 construct: from tissue; host or cells: guinea pig left atria
T2 sequence (H0VRN8 1-466): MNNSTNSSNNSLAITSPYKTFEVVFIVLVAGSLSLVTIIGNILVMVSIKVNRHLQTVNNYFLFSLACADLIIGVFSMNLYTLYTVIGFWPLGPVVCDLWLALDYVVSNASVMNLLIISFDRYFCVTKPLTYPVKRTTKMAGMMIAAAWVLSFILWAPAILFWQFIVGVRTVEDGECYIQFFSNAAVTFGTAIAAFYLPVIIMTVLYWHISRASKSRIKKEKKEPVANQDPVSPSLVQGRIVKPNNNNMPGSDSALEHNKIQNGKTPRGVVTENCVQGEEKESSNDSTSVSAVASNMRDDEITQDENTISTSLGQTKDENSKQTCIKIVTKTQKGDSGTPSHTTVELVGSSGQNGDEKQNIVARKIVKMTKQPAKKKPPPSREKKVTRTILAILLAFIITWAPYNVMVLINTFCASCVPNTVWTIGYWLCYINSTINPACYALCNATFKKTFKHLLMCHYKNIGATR

M2 muscarinic receptors [5] = target: T3, M2 muscarinic receptors (Homo sapiens, UniProt P08172); test: M2 muscarinic receptor affinity; assay type: binding
T3 sequence (P08172 1-466): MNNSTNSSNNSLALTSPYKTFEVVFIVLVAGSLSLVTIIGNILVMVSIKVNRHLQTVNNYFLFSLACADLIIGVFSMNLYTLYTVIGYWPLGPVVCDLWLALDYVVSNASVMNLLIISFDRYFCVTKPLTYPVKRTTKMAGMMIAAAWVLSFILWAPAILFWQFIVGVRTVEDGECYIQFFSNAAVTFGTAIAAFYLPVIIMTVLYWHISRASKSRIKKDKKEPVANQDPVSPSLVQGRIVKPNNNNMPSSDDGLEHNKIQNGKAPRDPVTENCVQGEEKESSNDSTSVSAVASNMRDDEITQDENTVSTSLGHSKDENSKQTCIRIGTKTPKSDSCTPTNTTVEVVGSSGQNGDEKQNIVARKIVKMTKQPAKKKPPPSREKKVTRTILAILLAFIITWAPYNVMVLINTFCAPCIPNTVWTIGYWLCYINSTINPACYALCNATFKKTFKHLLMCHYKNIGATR

sigma-1 [6] = target: T1, sigma-1; test: sigma-1 receptor affinity (binding)
[7] = tested on: Aβ25-35 induced amnesia and neurotoxicity; test: Aβ25-35 induced amnesia and neurotoxicity in mice (Y-maze, step-through); assay type: in vivo
[8] = tested on: mitochondrial toxicity of pentylenetetrazole (PTZ); test: latency of lethality of pentylenetetrazole (PTZ) in mice; assay type: in vivo; conditions: PTZ 130 mg/kg ip
PTZ convulsions = test: Pentylenetetrazole (PTZ) convulsions in mice; assay type: in vivo; conditions: 10 to 30 mg/kg po
[9] = tested on: M2 and M3 muscarinic receptors in the periphery; test: antagonism of peripheral M2 and M3 muscarinic receptors in mice; assay type: in vivo; conditions: from 1 to 10 mg/kg ip
sigma-2 receptors = sigma-2 receptors (Homo sapiens, UniProt Q5BJF2); test: sigma-2 receptor affinity (binding)
[10] = memory perturbations in mice; conditions: 0.1 to 45 mg/kg, per os
M3 muscarinic receptors [11] = target: M3 muscarinic receptors (Homo sapiens, UniProt P20309); test: M3 muscarinic receptor affinity; assay type: binding
M3 muscarinic receptors [12] = target: T4, M3 muscarinic receptors (Cavia porcellus, UniProt H0W1Z3); test: functional M3 antagonism, guinea pig ileum
T4 construct: from tissue; host or cells: guinea pig ileum

MES convulsions = test: Maximal Electrochoc Seizures (MES) in mice; assay type: in vivo; conditions: 10 to 30 mg/kg po

T1 sequence (Q99720 whole entry): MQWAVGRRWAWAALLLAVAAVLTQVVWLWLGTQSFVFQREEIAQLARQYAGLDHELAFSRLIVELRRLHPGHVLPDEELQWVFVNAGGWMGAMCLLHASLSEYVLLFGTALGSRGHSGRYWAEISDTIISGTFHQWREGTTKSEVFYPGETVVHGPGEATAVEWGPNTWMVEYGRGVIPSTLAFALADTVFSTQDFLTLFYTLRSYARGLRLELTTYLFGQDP
M3 muscarinic receptors (Homo sapiens, UniProt P20309), sequence (P20309 whole entry): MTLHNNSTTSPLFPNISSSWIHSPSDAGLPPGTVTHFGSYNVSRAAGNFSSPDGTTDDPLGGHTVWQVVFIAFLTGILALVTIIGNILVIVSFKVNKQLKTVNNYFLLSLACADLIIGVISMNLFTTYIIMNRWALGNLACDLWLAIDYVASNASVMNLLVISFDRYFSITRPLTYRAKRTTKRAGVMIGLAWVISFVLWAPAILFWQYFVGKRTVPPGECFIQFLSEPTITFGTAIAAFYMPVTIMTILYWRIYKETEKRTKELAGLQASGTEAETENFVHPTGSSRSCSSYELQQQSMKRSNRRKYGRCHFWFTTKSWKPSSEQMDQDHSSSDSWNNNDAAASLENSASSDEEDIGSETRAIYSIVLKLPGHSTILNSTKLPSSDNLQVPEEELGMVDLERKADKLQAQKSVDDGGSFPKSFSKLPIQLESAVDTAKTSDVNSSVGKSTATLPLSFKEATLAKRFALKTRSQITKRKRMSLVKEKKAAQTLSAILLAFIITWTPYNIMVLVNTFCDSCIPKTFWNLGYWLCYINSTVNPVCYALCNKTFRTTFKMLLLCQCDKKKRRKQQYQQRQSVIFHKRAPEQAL
sigma-2 receptors, sequence (Q5BJF2 whole entry): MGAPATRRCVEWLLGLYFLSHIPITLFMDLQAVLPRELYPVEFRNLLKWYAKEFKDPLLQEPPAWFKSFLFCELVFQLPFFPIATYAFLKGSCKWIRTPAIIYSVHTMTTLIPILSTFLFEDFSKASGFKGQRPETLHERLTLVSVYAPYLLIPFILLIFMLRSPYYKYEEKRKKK
T4 sequence (H0W1Z3 1-590): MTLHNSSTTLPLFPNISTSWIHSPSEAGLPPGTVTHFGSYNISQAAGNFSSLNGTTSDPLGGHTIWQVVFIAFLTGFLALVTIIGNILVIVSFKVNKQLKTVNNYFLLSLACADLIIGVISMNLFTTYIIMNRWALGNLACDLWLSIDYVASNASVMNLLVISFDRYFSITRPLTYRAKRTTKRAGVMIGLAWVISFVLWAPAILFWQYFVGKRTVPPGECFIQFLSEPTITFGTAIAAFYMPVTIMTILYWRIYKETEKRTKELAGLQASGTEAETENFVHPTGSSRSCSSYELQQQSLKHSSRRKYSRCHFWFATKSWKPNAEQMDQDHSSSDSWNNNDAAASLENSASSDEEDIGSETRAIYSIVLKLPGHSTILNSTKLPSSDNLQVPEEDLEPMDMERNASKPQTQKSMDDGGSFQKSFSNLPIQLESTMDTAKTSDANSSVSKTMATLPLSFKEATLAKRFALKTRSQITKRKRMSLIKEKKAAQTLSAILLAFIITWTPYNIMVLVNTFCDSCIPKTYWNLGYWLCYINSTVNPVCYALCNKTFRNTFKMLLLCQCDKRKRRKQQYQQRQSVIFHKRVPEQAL

**Q.** With `CN(C)CC1CCOC1(c1ccccc1)c1ccccc1` (stereo not shown) [AE37, tetrahydro-N,N-dimethyl-2,2-diphenyl-3-furanomethanamine] as the molecule, how does the “neuroprotection against NMDA induced functional excitotoxicity” value [1] read?
**A.** no significant neuroprotection

**Q.** What about the “neuroprotection against mice brain ischemia” value (brain ischemia) of the same molecule?
**A.** inactive

**Q.** What about the “excitotoxic effects of the compound itself (functional excitotoxicity)” value (hippocampal slices) of the same molecule?
**A.** significant excitoneurotoxic effects

**Q.** And the sigma-1 agonistic activity (sigma-1 [2])?
**A.** sub-micromolar and selective sigma-1 agonism

**Q.** What about the IC50 [3] of the same molecule?
**A.** 8 µM

**Q.** Which results are given for `CN(C)CC1COC(c2ccccc2)(c2ccccc2)C1` (stereo not shown) [AE14, tetrahydro-N,N-dimethyl-5,5-diphenyl-3-furanomethanamine]?
**A.** neuroprotection against NMDA induced functional excitotoxicity [1]: no significant neuroprotection; neuroprotection against mice brain ischemia (brain ischemia): inactive; excitotoxic effects of the compound itself (functional excitotoxicity) (hippocampal slices): significant excitoneurotoxic effects; sigma-1 agonistic activity (sigma-1 [2]): high and selective sigma-1 agonistic activity; IC50 [3]: > 10 µM

**Q.** Which IC50 (sodium channels) does the source give for `CNCC1CCOC1(c1ccccc1)c1ccccc1` (stereo not shown) [AE37Met, tetrahydro-N-methyl-2,2-diphenyl-3-furanomethanamine] here?
**A.** 5.7 µM

**Q.** And the “antagonistic effects against NMDA induced functional excitotoxicity” value ([1]; AE37Met 1 to 10 μM, rat hippocampal slices)?
**A.** first antagonistic effects

**Q.** What about the “neuroprotection against NMDA induced functional excitotoxicity” value [1] of the same molecule?
**A.** high dose (concentration)-dependant neuroprotection

**Q.** What about the “anti-immobility activity in the Porsolt test” value (immobility) of the same molecule?
**A.** high anti-immobility activity

**Q.** And the “concentration from which significant functional antagonism (M2)” value (M2 muscarinic receptors [4])?
**A.** ≥ 3.0 µM

**Q.** And the IC50 (M2 muscarinic receptors [5])?
**A.** 2.77 µM

**Q.** And the “protection against brain ischemia” value (brain ischemia; 5 to 15 mg/kg ip)?
**A.** protected; also recorded: significant antagonism

**Q.** What about the IC50 (sigma-1 [6]) of the same molecule?
**A.** 0.67 µM

**Q.** What about the “antagonism of Aβ25-35 induced amnesia and neurotoxicity” value ([7]; 0.3 to 3 mg/kg ip, mice) of the same molecule?
**A.** antagonized

**Q.** What about the “antiamnesic action on co-administration with IAChEases” value ([7]; co-administered with Rivastigmine or Donepezil, Y-maze, step-through, intracerebral soluble amyloid 25-35, mice) of the same molecule?
**A.** higher than the sum of the antiamnesic effects

**Q.** And the “excitotoxic effects of the compound itself (functional excitotoxicity)” value (hippocampal slices)?
**A.** no excitotoxic effects

**Q.** What about the “increase of latency of lethality of PTZ” value ([8]; AE37Met 3.10 mg/kg po (so in the source)) of the same molecule?
**A.** 3.10 fold

**Q.** And the “increase of latency of lethality of PTZ” value ([8]; AE37Met 30 mg/kg po)?
**A.** 18 fold

**Q.** What about the “protection against PTZ convulsions” value (PTZ convulsions) of the same molecule?
**A.** protected; also recorded: high protective effects

**Q.** And the “antagonistic effects on M2 and M3 muscarinic receptors in the periphery” value [9]?
**A.** antagonistic effects

**Q.** What about the IC50 (sigma-2 receptors) of the same molecule?
**A.** > 10 µM

**Q.** And the memory perturbations [10]?
**A.** no memory perturbations

**Q.** What about the IC50 (M3 muscarinic receptors [11]) of the same molecule?
**A.** 4.35 µM

**Q.** And the IC50 [3]?
**A.** 1 µM

**Q.** And the “concentration from which significant functional antagonism (M3)” value (M3 muscarinic receptors [12])?
**A.** ≥ 3.0 µM

**Q.** What about the “protection against MES convulsions” value (MES convulsions) of the same molecule?
**A.** protected; also recorded: high protective effects
